{"source": "paper PMC6531345", "about": "(Bioorganic & medicinal chemistry letters, 2019)", "key": {"[1]": {"system": "native Rho", "conditions": "counter-screen; cited from earlier work"}, "[2]": {"system": "native MDH", "conditions": "counter-screen; cited from earlier work"}, "[3]": {"system": "human HSP60/10", "conditions": "in vitro; cited from earlier work"}, "[4]": {"target": "T1, M. tuberculosis PtpB (Mycobacterium tuberculosis, UniProt I6WXK4)", "T1 sequence (I6WXK4 whole entry, looked up)": "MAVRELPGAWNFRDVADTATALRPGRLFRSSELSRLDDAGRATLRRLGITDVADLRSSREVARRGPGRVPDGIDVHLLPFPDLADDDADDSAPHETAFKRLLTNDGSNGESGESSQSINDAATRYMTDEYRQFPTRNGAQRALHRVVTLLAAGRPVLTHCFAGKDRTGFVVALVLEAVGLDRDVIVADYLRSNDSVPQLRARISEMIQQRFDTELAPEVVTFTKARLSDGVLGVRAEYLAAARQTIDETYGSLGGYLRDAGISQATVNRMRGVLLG", "conditions": "cited from earlier work"}, "[5]": {"target": "T1, M. tuberculosis PtpB", "format": "biochemical", "conditions": "pNPP substrate, 6–8 replicates"}, "[6]": {"system": "E. coli GroEL/ES", "conditions": "high-throughput screen; cited from earlier work"}, "[7]": {"system": "ESKAPE pathogens", "conditions": "panel of Gram-positive and Gram-negative bacteria; cited from earlier work"}}, "data": [{"smiles": "O=[N+]([O-])c1cc(S(=O)(=O)Nc2ccc(-c3nc4cc(NS(=O)(=O)c5ccc(Cl)s5)ccc4o3)cc2)ccc1Cl", "note": "[28R]", "values": [{"measurement": "inhibition of native Rho", "setting": "[1]", "value": "only weakly"}, {"measurement": "inhibition of native MDH", "setting": "[2]", "value": "only weakly"}]}, {"smiles": "Cc1ccc(C(=O)Nc2ccc(S(=O)(=O)O)c3cc(S(=O)(=O)O)cc(S(=O)(=O)O)c23)cc1NC(=O)c1cccc(NC(=O)Nc2cccc(C(=O)Nc3cc(C(=O)Nc4ccc(S(=O)(=O)O)c5cc(S(=O)(=O)O)cc(S(=O)(=O)O)c45)ccc3C)c2)c1", "note": "[suramin]", "values": [{"measurement": "inhibition of human HSP60/10", "setting": "[3]", "value": "can inhibit human HSP60/10 in vitro"}]}, {"smiles": "O=C(O)C(=O)N(Cc1cccc(Cl)c1)Cc1ccc(S(=O)(=O)NCCC(c2ccccc2)c2ccccc2)s1", "note": "[OMTS, (oxalylamino-methylene)-thiophene sulfonamide]", "values": [{"measurement": "inhibition of M. tuberculosis PtpB", "setting": "[4]", "value": "potent and selective inhibitor"}]}, {"smiles": "O=S(=O)(Nc1ccc2oc(-c3ccccc3)nc2c1)c1cccc(O)c1", "note": "[L51-m]", "values": [{"measurement": "dose-response behaviour on PtpB phosphatase activity", "setting": "[5]", "value": "bi-phasic response where compounds activate then inhibit phosphatase activity"}]}, {"smiles": "Cc1ccc(S(=O)(=O)Nc2ccc(-c3nc4ccc(NS(=O)(=O)c5ccc(C)cc5)cc4[nH]3)cc2)cc1", "note": "[compound 1]", "values": [{"measurement": "GroEL/ES inhibition", "setting": "[6]", "value": "one of our most potent GroEL/ES inhibitors"}, {"measurement": "antibacterial efficacy", "setting": "[7]", "value": "lacked any appreciable antibacterial efficacy"}]}]}
